According to PubChem BioAssay AID248 (DTP/NCI, 2004):
Several values for one entry are separate records, joined by “and”; a condition that tells them apart may be missing. Equal entries are not always repeated. Inconclusive results and toxic doses are left out.

Test system: L1210 leukemia ip in BDF1 mice, survival T/C
Assay: NCI In Vivo Anticancer Drug Screen. Data for tumor model L1210 Leukemia (intraperitoneal) in B6D2F1 (BDF1) mice
Conditions: higher = longer survival
Outline: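 Mice bearing the transplanted tumor received compound or vehicle. Survival of the treated group was divided by that of the vehicle-treated control group to give the ratio.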

## CC1CCC(NC(=O)N(CCCl)N=O)CC1 (stereo unspecified)
endpoint: mean survival time, dose: 0.1 mg/kg/injection, schedule: Q01DX001 (ip), vehicle: clinical formulation
  T/C: 211 % of control
endpoint: mean survival time, dose: 0.2 mg/kg/injection, schedule: Q01DX001 (ip), vehicle: clinical formulation
  T/C: 119 % of control
endpoint: mean survival time, dose: 0.4 mg/kg/injection, schedule: Q01DX001 (ip), vehicle: clinical formulation
  T/C: 223 % of control
endpoint: mean survival time, dose: 0.45 mg/kg/injection, schedule: Q01DX009 (ip), vehicle: saline with Tween-80
  T/C: 99 % of control and 103 % of control
endpoint: mean survival time, dose: 0.9 mg/kg/injection, schedule: Q01DX009 (ip), vehicle: saline with Tween-80
  T/C: 106 % of control and 118 % of control
endpoint: mean survival time, dose: 1.0 mg/kg/injection, schedule: Q01DX001 (ip), vehicle: other
  T/C: 112 % of control
endpoint: mean survival time, dose: 1.0 mg/kg/injection, schedule: Q04DX002 (ip), vehicle: saline with Tween-80
  T/C: 95 % of control and 100 % of control
endpoint: mean survival time, dose: 2.0 mg/kg/injection, schedule: Q01DX001 (ip), vehicle: other
  T/C: 118 % of control
endpoint: mean survival time, dose: 2.0 mg/kg/injection, schedule: Q01DX009 (ip), vehicle: saline
  T/C: 98 % of control
endpoint: mean survival time, dose: 2.0 mg/kg/injection, schedule: Q04DX002 (ip), vehicle: saline with Tween-80
  T/C: 101 % of control and 120 % of control
endpoint: mean survival time, dose: 2.5 mg/kg/injection, schedule: Q01DX Z (ip), vehicle: Klucel (hydroxypropylcellulose) (HPC)
  T/C: 115 % of control
endpoint: mean survival time, dose: 3.1 mg/kg/injection, schedule: Q07DX003 (ip), vehicle: Klucel (hydroxypropylcellulose) (HPC)
  T/C: 109 % of control
endpoint: mean survival time, dose: 4.0 mg/kg/injection, schedule: Q01DX009 (ip), vehicle: saline
  T/C: 104 % of control
endpoint: mean survival time, dose: 4.0 mg/kg/injection, schedule: Q04DX002 (ip), vehicle: saline with Tween-80
  T/C: 103 % of control and 107 % of control
endpoint: mean survival time, dose: 5.0 mg/kg/injection, schedule: Q01DX Z (ip), vehicle: Klucel (hydroxypropylcellulose) (HPC)
  T/C: 205 % of control
endpoint: mean survival time, dose: 6.0 mg/kg/injection, schedule: Q01DX001 (ip), vehicle: other
  T/C: 154 % of control
endpoint: mean survival time, dose: 6.2 mg/kg/injection, schedule: Q07DX003 (ip), vehicle: Klucel (hydroxypropylcellulose) (HPC)
  T/C: 100 % of control
endpoint: mean survival time, dose: 6.7 mg/kg/injection, schedule: Q04DX004 (ip), vehicle: saline with Tween-80
  T/C: 206 % of control
endpoint: mean survival time, dose: 8.0 mg/kg/injection, schedule: Q01DX001 (ip), vehicle: other
  T/C: 165 % of control
endpoint: mean survival time, dose: 8.0 mg/kg/injection, schedule: Q01DX009 (ip), vehicle: saline
  T/C: 117 % of control
endpoint: mean survival time, dose: 10.0 mg/kg/injection, schedule: Q01DX001 (ip), vehicle: Klucel (hydroxypropylcellulose) (HPC)
  T/C: 445 % of control
endpoint: mean survival time, dose: 10.0 mg/kg/injection, schedule: Q01DX001 (ip), vehicle: clinical formulation
  T/C: 280 % of control
endpoint: mean survival time, dose: 10.0 mg/kg/injection, schedule: Q01DX001 (ip), vehicle: saline
  T/C: 328 % of control
endpoint: mean survival time, dose: 10.0 mg/kg/injection, schedule: Q01DX001 (iv), vehicle: clinical formulation
  T/C: 186 % of control and 205 % of control and 245 % of control
endpoint: mean survival time, dose: 10.0 mg/kg/injection, schedule: Q01DX Z (ip), vehicle: Klucel (hydroxypropylcellulose) (HPC)
  T/C: 240 % of control and 282 % of control
endpoint: mean survival time, dose: 10.0 mg/kg/injection, schedule: Q04DX004 (ip), vehicle: saline with Tween-80
  T/C: 273 % of control
endpoint: mean survival time, dose: 10.7 mg/kg/injection, schedule: Q01DX001 (ip), vehicle: saline with Tween-80
  T/C: 181 % of control
endpoint: mean survival time, dose: 12.0 mg/kg/injection, schedule: Q01DX001 (ip), vehicle: other
  T/C: 213 % of control
endpoint: mean survival time, dose: 12.5 mg/kg/injection, schedule: Q01DX001 (ip), vehicle: other
  T/C: 241 % of control
endpoint: mean survival time, dose: 12.5 mg/kg/injection, schedule: Q01DX001 (ip), vehicle: saline
  T/C: 172 % of control
endpoint: mean survival time, dose: 12.5 mg/kg/injection, schedule: Q07DX003 (ip), vehicle: Klucel (hydroxypropylcellulose) (HPC)
  T/C: 294 % of control
endpoint: mean survival time, dose: 13.0 mg/kg/injection, schedule: Q01DX001 (ip), vehicle: other
  T/C: 196 % of control
endpoint: mean survival time, dose: 15.0 mg/kg/injection, schedule: Q01DX001 (ip), vehicle: clinical formulation
  T/C: 218 % of control
endpoint: mean survival time, dose: 15.0 mg/kg/injection, schedule: Q01DX001 (ip), vehicle: saline
  T/C: 238 % of control
endpoint: mean survival time, dose: 15.0 mg/kg/injection, schedule: Q01DX001 (iv), vehicle: clinical formulation
  T/C: 326 % of control
endpoint: mean survival time, dose: 15.0 mg/kg/injection, schedule: Q01DX001 (iv), vehicle: saline
  T/C: 154 % of control
endpoint: mean survival time, dose: 15.0 mg/kg/injection, schedule: Q04DX004 (ip), vehicle: saline with Tween-80
  T/C: 319 % of control
endpoint: mean survival time, dose: 16.0 mg/kg/injection, schedule: Q01DX001 (ip), vehicle: other
  T/C: 321 % of control
endpoint: mean survival time, dose: 18.0 mg/kg/injection, schedule: Q01DX001 (ip), vehicle: other
  T/C: 265 % of control
endpoint: mean survival time, dose: 20.0 mg/kg/injection, schedule: Q01DX001 (ip), vehicle: Klucel (hydroxypropylcellulose) (HPC)
  T/C: 442 % of control
endpoint: mean survival time, dose: 20.0 mg/kg/injection, schedule: Q01DX001 (iv), vehicle: Klucel (hydroxypropylcellulose) (HPC)
  T/C: 332 % of control
endpoint: mean survival time, dose: 20.0 mg/kg/injection, schedule: Q01DX001 (iv), vehicle: clinical formulation
  T/C: 371 % of control
endpoint: mean survival time, dose: 20.0 mg/kg/injection, schedule: Q01DX Z (ip), vehicle: Klucel (hydroxypropylcellulose) (HPC)
  T/C: 166 % of control
endpoint: mean survival time, dose: 20.0 mg/kg/injection, schedule: Q04DX004 (ip), vehicle: saline with Tween-80
  T/C: 290 % of control
endpoint: mean survival time, dose: 22.0 mg/kg/injection, schedule: Q01DX001 (ip), vehicle: clinical formulation
  T/C: 255 % of control
endpoint: mean survival time, dose: 22.0 mg/kg/injection, schedule: Q01DX001 (ip), vehicle: saline
  T/C: 326 % of control
endpoint: mean survival time, dose: 22.0 mg/kg/injection, schedule: Q01DX001 (iv), vehicle: clinical formulation
  T/C: 250 % of control
endpoint: mean survival time, dose: 22.0 mg/kg/injection, schedule: Q01DX001 (iv), vehicle: saline
  T/C: 202 % of control
endpoint: mean survival time, dose: 24.0 mg/kg/injection, schedule: Q01DX001 (ip), vehicle: other
  T/C: 252 % of control
endpoint: mean survival time, dose: 24.0 mg/kg/injection, schedule: Q01DX001 (ip), vehicle: saline with Tween-80
  T/C: 436 % of control
endpoint: mean survival time, dose: 24.0 mg/kg/injection, schedule: Q01DX001 (oral), vehicle: other
  T/C: 364 % of control
endpoint: mean survival time, dose: 25.0 mg/kg/injection, schedule: Q01DX001 (ip), vehicle: other
  T/C: 300 % of control
endpoint: mean survival time, dose: 25.0 mg/kg/injection, schedule: Q01DX001 (ip), vehicle: saline
  T/C: 382 % of control
endpoint: mean survival time, dose: 25.0 mg/kg/injection, schedule: Q07DX003 (ip), vehicle: Klucel (hydroxypropylcellulose) (HPC)
  T/C: 214 % of control
endpoint: mean survival time, dose: 26.0 mg/kg/injection, schedule: Q01DX009 (ip), vehicle: saline with Tween-80
  T/C: 97 % of control and 101 % of control
endpoint: mean survival time, dose: 27.0 mg/kg/injection, schedule: Q01DX001 (ip), vehicle: other
  T/C: 283 % of control
endpoint: mean survival time, dose: 30.0 mg/kg/injection, schedule: Q01DX001 (ip), vehicle: other
  T/C: 321 % of control
endpoint: mean survival time, dose: 31.0 mg/kg/injection, schedule: Q01DX001 (ip), vehicle: other
  T/C: 357 % of control
endpoint: mean survival time, dose: 33.0 mg/kg/injection, schedule: Q01DX001 (ip), vehicle: saline
  T/C: 326 % of control
endpoint: mean survival time, dose: 33.0 mg/kg/injection, schedule: Q01DX001 (iv), vehicle: saline
  T/C: 297 % of control
endpoint: mean survival time, dose: 40.0 mg/kg/injection, schedule: Q01DX001 (ip), vehicle: Klucel (hydroxypropylcellulose) (HPC)
  T/C: 180 % of control
endpoint: mean survival time, dose: 40.0 mg/kg/injection, schedule: Q01DX001 (ip), vehicle: clinical formulation
  T/C: 404 % of control
endpoint: mean survival time, dose: 40.0 mg/kg/injection, schedule: Q01DX001 (iv), vehicle: Klucel (hydroxypropylcellulose) (HPC)
  T/C: 395 % of control
endpoint: mean survival time, dose: 40.0 mg/kg/injection, schedule: Q01DX001 (iv), vehicle: clinical formulation
  T/C: 188 % of control and 251 % of control
endpoint: mean survival time, dose: 40.0 mg/kg/injection, schedule: Q04DX004 (ip), vehicle: saline with Tween-80
  T/C: 123 % of control
endpoint: mean survival time, dose: 45.0 mg/kg/injection, schedule: Q01DX001 (ip), vehicle: other
  T/C: 304 % of control
endpoint: mean survival time, dose: 50.0 mg/kg/injection, schedule: Q01DX001 (ip), vehicle: other
  T/C: 226 % of control
endpoint: mean survival time, dose: 50.0 mg/kg/injection, schedule: Q01DX001 (ip), vehicle: saline
  T/C: 326 % of control and 360 % of control
endpoint: mean survival time, dose: 50.0 mg/kg/injection, schedule: Q07DX003 (ip), vehicle: Klucel (hydroxypropylcellulose) (HPC)
  T/C: 121 % of control
endpoint: mean survival time, dose: 62.0 mg/kg/injection, schedule: Q01DX001 (ip), vehicle: other
  T/C: 109 % of control
endpoint: mean survival time, dose: 64.0 mg/kg/injection, schedule: Q04DX002 (ip), vehicle: saline with Tween-80
  T/C: 294 % of control and 313 % of control
endpoint: mean survival time, dose: 67.0 mg/kg/injection, schedule: Q01DX001 (ip), vehicle: other
  T/C: 230 % of control
endpoint: mean survival time, dose: 72.0 mg/kg/injection, schedule: Q01DX001 (ip), vehicle: other
  T/C: 113 % of control
endpoint: mean survival time, dose: 75.0 mg/kg/injection, schedule: Q01DX001 (ip), vehicle: saline
  T/C: 219 % of control and 296 % of control
endpoint: mean survival time, dose: 91.0 mg/kg/injection, schedule: Q01DX001 (oral), vehicle: other
  T/C: 280 % of control and 306 % of control and 388 % of control
endpoint: mean survival time, dose: 400.0 mg/kg/injection, schedule: Q01DX001 (ip), vehicle: saline with Tween-80
  T/C: 100 % of control
endpoint: median survival time, dose: 1.8 mg/kg/injection, schedule: Q01DX009 (ip), vehicle: saline
  T/C: 318 % of control
endpoint: median survival time, dose: 7.5 mg/kg/injection, schedule: Q01DX009 (ip), vehicle: saline
  T/C: 211 % of control
endpoint: median survival time, dose: 12.5 mg/kg/injection, schedule: Q01DX001 (ip), vehicle: saline with Tween-80
  T/C: 118 % of control and 121 % of control
endpoint: median survival time, dose: 15.0 mg/kg/injection, schedule: Q01DX009 (ip), vehicle: saline
  T/C: 96 % of control
endpoint: median survival time, dose: 100.0 mg/kg/injection, schedule: Q01DX001 (ip), vehicle: saline with Tween-80
  T/C: 106 % of control and 109 % of control
